Data on two compounds can be found in paper PMC5884870, “Antioxidant Role of PcGSTd1 in Fenpropathrin Resistant Population of the Citrus Red Mite, Panonychus citri (McGregor)” (Frontiers in Physiology, 2018).

Structures are written as SMILES.

As usually defined, the Km is the concentration of substrate that gives half-maximal velocity. The IC50 is the point on the concentration scale where inhibition reaches its midpoint. Higher therefore signals weaker potency.

Test [1] deals with T1, PcGSTd1 (Panonychus citri, UniProt H9BTE1).
T1 construct: full ORF in pET-28a (BamHI/NotI), His-tag kept (Ni-NTA), E. coli TransBL21(DE3); EC 2.5.1.18
T1 sequence (H9BTE1 1-217): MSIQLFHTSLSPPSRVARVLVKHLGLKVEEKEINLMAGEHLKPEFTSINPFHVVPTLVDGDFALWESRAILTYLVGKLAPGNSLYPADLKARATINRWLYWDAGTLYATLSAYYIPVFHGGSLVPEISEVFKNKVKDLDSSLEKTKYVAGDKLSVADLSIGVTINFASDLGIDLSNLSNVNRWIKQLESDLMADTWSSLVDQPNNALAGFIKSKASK
Put plainly: CDNB-GSH conjugation, absorbance […] nm, Lineweaver-Burk. Particulars: co-substrate GSH; 28 C. Format: biochemical.

The target of test [2] is T1, PcGSTd1. In words: CDNB-GSH conjugation, absorbance […] nm. Type of test: biochemical. Particulars: 0.6 mM CDNB, 5 mM GSH, 0.05 M Tris-HCl pH 7.5; ECA 0.05-2 mM.

Regarding `O=[N+]([O-])c1ccc(Cl)c([N+](=O)[O-])c1` [1-chloro-2,4-dinitrobenzene], the Km on PcGSTd1 [1] came to 1820 ± 490 µM.

For `C=C(CC)C(=O)c1ccc(OCC(=O)O)c(Cl)c1Cl` [ethacrynic acid], inhibition at PcGSTd1 [2] was half-maximal at 1130 ± 120 µM (IC50).
